{
  "source": "patent US20240294467A1",
  "about": "“USP9X Inhibitors” (ProDeg, LLC, priority 2021, published 2024)",
  "key": {"[1]": {"biological_target": "T1, USP9X (Homo sapiens (Human), UniProt Q93008)", "test": "Biacore T200 surface plasmon resonance binding to immobilized USP9X", "details": "25° C.", "description": "The terms “inhibit” as used herein with respect to the activity of the USP9X inhibitor, refer to the ability to substantially antagonize, prohibit, prevent, restrain, slow, disrupt, alter, eliminate, stop, or reverse the progression or severity of, for example, the catalytic activity of a DUB such as USP9X, the survival or proliferation of a cancer cell, or a disease or condition associated with USP9X. […] In some embodiments, the compounds as described can inhibit USP9X by binding to an active site of USP9X. […] The binding activity is determined with a standard binding assay, such as a Biacore surface plasmon resonance instrument. […] The binding affinity KD is determined using a Biacore T200 instrument (GE Healthcare, Biacore). Ubiquitin aldehyde can be used as a reference in analyzing the inhibition results determined via Biacore. […]\nUSP9X was immobilized on a chip for surface plasmon resonance measurements via Biacore T200. Solutions of compound Compound 2A at various concentrations were flowed over the immobilized USP9X and the change in refractive index was monitored. […] The values of the maximum response for each concentration of Compound 2A were plotted and were consistent with a binding of the compound to a single site on USP9X with a dissociation equilibrium constant of 1.9 μM in reasonable agreement with value determined from the kinetic association and dissociation rates."}, "[2]": {"biological_target": "T1, USP9X", "test": "Steady-state enzyme inhibition kinetics of USP9X", "assay_type": "biochemical", "description": "The data were fit to a general model for enzyme inhibition (FIG. 1E) so the values of the parameters determined from the assays specified the mode of inhibition. For example, in the case of α=1 and β=0, it corresponded to purely non-competitive inhibition. For α=infinity and p=1, it corresponded to purely competitive inhibition. The values of all the parameters, KS, KI, kcat, α, and β could be determined from the steady state measurements. The enzyme reactions were set up as described in the Inhibiting the catalytic activity of USP9X section. The concentration of the substrate ubqiutin-rhodamine110 was varied. The initial rates of the reactions were determined at several concentrations of the inhibitor Compound 2A. In order to determine the values of the parameters KS and kcat, the reaction rates in the absence of the inhibitor Compound 2A, the initial reaction rate data were fit to the standard Michaelis-Menten equation v=Vmax [S]/(Km+[S]). The values of α and β could then be determined by fitting the initial rate data of the enzyme reaction at various concentrations of Compound 2A to a modified version of the Michaelis-Menten equation, designating both Vmax and KS apparent to distinguish the apparent values of the parameters determined from these plots to the true values for these parameters determined from the steady state kinetics in the absence of Compound 2A. The values of α and β could be determined from the variation of the slopes and intercepts of the series of double reciprocal plots of 1/v versus 1/[S] for each concentration of Compound 2A. […] The two values determined for KI were from the two different plots.\nThe two values for KI were determined by two different methods for determining this parameter from the kinetic data: 1 represented a value determined from the slope of the 1/A intercept vs 1/[I] plot; 2 represented a value determined from the y intercept of the 1/A slope vs 1/[I] plot. […] Only the values of the parameters varied for the compounds."}, "[3]": {"biological_target": "T1, USP9X", "test": "USP9X enzyme activity assay, ubiquitin-rhodamine110 substrate", "quoted_text": "The inhibition property of compound Compound 1A was evaluated in assays measuring the ability of USP9X to catalyze the hydrolysis of the amide bond between the C terminal carboxylate of ubiquitin and rhodamine110 of the fluorogenic substrate ubiquitin-rhodamine 110. To the wells of a 96 well reaction plate was added 12.5 μL USP9X solution (1.3 nM) in assay buffer (100 mM NaCl, 1 mM DTT, 0.1% bovine serum albumin, 0.05% Tween 20, 50 mM Tris, pH 7.5). 12.5 μL of Compound 1A in assay buffer (4×final concentration) was added to the wells containing the USP9X solution, and the solution was gently mixed by pipetting up and down several times. The plate was sealed and incubated at room temperature for 20 minutes.\nThen 25 μL of the 1 μM substrate (ubiquitin-rhodaminel10) solution was added in assay buffer. The final substrate concentration was 0.5 μM. […] The slope for the rate of change of the fluorescence was determined and plotted vs the concentration of Compound 1A.\nUSP9X enzyme assays were set up in a 96 well plate to assess the abilities of Compound 3A and Compound 4A to inhibit the activity of USP9X, respectively. Ubiquitin-rhodamine110 was used as the substrate and ubiquitin aldehyde was included in the assay as a positive control.\nPurified recombinant USPx9 (R&D Systems) in 50 mM Tris buffer pH 7.5, 1 mM DTT, 100 mM NaCl, 0.05% Tween 20 and 0/1% BSA is used at a concentration of 0.325 nM with 0.5 μM ubiquitin-rhodamine (R&D Systems)."}, "[4]": {"system": "carbonic anhydrase", "test": "Biacore binding to immobilized carbonic anhydrase (non-specific binding control)"}, "[5]": {"system": "BT-549", "test": "ONCOLINES Profiler proliferation", "assay_type": "cell-based, human", "details": "BT-549, breast ductal carcinoma", "description": "(§1) The compounds were profiled on an ONCOLINES™ Profiler (Netherlands Translational Research Center) assayed with 66 cancer cell lines to determine if they were capable of inhibiting the proliferation of these cancer cells.\n(§2) To further evaluate potency of the compounds, they were compared with the USP9X inhibitor WP 1130 by screening both the compounds and WP1130 on a 66-cancer cell line panel ONCOLINES™ Profiler."}, "[6]": {"biological_target": "USP5 (Homo sapiens (Human), UniProt P45974)", "sequence (P45974 whole entry, species assumed)": "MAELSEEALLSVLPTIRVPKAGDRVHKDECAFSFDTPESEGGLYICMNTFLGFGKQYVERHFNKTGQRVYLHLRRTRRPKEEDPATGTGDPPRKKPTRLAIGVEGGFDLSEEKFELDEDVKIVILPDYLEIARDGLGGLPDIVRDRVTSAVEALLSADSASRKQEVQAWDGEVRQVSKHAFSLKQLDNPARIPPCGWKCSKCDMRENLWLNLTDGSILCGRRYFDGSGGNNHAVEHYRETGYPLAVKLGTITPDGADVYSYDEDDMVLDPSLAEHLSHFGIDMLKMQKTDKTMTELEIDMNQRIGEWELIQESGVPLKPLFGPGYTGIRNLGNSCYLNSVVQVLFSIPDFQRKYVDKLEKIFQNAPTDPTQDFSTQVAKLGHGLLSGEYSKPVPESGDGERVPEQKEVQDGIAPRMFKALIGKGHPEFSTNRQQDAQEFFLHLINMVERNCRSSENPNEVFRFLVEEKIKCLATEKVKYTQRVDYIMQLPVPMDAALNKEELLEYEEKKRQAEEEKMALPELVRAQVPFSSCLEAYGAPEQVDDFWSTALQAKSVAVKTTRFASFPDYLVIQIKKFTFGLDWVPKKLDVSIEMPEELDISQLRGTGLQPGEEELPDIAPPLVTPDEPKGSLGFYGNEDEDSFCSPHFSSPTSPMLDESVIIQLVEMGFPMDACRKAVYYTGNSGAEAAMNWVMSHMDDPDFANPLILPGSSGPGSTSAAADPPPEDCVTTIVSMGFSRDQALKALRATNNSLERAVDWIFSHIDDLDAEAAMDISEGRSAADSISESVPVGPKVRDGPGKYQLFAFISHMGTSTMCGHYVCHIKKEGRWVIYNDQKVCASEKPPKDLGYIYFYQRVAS", "details": "cited from earlier work"}, "[7]": {"system": "66 cancer cell lines", "test": "ONCOLINES Profiler, whole panel", "assay_type": "cell-based", "details": "in 3 of 66 cell lines", "description": "The sensitivities of multiple cancer cells can be determined by screening the compounds on a cancer cell line panel, such as an ONCOLINES™ Profiler (Netherlands Translational Research Center) assayed with various tumor cell lines. For more information on ONCOLINES™ methods, see https://www.oncolines.com/oncolines/oncolines-explained-facts/. […] For example, Compound 7A inhibited the proliferation of 57 of the 66 cell lines being tested. […] “A tumor cell line sensitive to the compounds” is referred to that the proliferation of a tumor cell line, when contacted with the compounds, is inhibited by at least 50%, at least 60%, at least 70%, at least 80%, at least 85%, at least 90%, at least 91%, at least 92%, at least 93%, at least 94%, at least 95%, at least 96%, at least 97%, at least 98%, at least 99%, or 100%.\nas §1, §2"}, "[8]": {"system": "LoVo", "test": "ONCOLINES Profiler proliferation", "assay_type": "cell-based", "details": "colorectal adenocarcinoma", "description": "as §1, §2"}, "[9]": {"system": "CCRF-CEM", "test": "ONCOLINES Profiler proliferation", "assay_type": "cell-based", "details": "acute lymphoblastic leukemia", "description": "as §1, §2"}, "[10]": {"system": "Hs 57BT", "test": "ONCOLINES Profiler proliferation", "assay_type": "cell-based", "details": "Hs 57BT (Hs578T), breast carcinoma", "description": "as §1, §2"}, "[11]": {"system": "A-172", "test": "ONCOLINES Profiler proliferation", "assay_type": "cell-based", "details": "A-172, glioblastoma", "description": "as §1, §2"}, "[12]": {"system": "RPMI-7951", "test": "ONCOLINES Profiler proliferation", "assay_type": "cell-based", "details": "RPMI-7951, malignant melanoma", "description": "as §1, §2"}, "[13]": {"system": "BT-20", "test": "ONCOLINES Profiler proliferation", "assay_type": "cell-based", "details": "BT-20, breast carcinoma", "description": "as §1, §2"}, "[14]": {"system": "MOLT-4", "test": "ONCOLINES Profiler proliferation", "assay_type": "cell-based", "details": "MOLT-4, acute lymphoblastic leukemia", "description": "as §1, §2"}, "[15]": {"system": "H82", "test": "ONCOLINES Profiler proliferation", "assay_type": "cell-based", "details": "H82, small cell lung", "description": "as §1, §2"}, "[16]": {"system": "DU 145", "test": "ONCOLINES Profiler proliferation", "assay_type": "cell-based", "details": "DU 145, prostate carcinoma", "description": "as §1, §2"}, "[17]": {"system": "A549", "test": "ONCOLINES Profiler proliferation", "assay_type": "cell-based", "details": "A549, lung", "description": "as §1, §2"}, "[18]": {"system": "RKO", "test": "ONCOLINES Profiler proliferation", "assay_type": "cell-based", "details": "colon carcinoma", "description": "as §1, §2"}, "[19]": {"biological_target": "UCH-L1 (Homo sapiens (Human), UniProt P09936)", "sequence (P09936 whole entry, species assumed)": "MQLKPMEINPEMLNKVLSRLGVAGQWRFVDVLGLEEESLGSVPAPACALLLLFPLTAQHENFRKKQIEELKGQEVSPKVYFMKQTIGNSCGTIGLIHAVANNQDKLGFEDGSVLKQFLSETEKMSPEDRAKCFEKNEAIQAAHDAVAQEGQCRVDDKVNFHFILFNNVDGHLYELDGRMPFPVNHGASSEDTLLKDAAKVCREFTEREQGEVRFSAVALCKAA", "details": "cited from earlier work"}, "[20]": {"biological_target": "USP14 (Homo sapiens (Human), UniProt P54578)", "sequence (P54578 whole entry, species assumed)": "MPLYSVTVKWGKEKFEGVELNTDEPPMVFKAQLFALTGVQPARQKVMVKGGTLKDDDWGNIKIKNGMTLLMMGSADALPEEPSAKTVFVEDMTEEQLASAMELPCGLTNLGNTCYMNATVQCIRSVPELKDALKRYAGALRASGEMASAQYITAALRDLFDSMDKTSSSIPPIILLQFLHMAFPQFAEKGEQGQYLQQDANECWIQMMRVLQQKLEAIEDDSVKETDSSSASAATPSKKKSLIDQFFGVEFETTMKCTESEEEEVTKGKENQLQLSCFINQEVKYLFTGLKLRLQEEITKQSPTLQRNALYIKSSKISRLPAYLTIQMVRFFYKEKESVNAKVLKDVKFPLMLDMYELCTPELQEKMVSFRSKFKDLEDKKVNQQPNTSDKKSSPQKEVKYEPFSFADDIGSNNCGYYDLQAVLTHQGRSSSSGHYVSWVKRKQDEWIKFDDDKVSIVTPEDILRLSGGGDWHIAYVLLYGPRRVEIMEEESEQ", "details": "cited from earlier work"}, "[21]": {"biological_target": "T1, USP9X", "details": "cited from earlier work"}, "[22]": {"biological_target": "UCH37 (Homo sapiens (Human), UniProt Q9Y5K5)", "sequence (Q9Y5K5 whole entry, species assumed)": "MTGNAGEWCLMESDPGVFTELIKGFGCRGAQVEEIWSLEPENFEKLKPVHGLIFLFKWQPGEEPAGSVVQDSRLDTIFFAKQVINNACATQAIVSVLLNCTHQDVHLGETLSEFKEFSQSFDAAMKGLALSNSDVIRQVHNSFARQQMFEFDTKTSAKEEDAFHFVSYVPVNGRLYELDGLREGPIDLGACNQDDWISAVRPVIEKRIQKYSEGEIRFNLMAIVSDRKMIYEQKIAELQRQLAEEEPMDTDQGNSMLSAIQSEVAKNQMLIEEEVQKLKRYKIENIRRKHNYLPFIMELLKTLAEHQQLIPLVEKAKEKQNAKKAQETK", "details": "cited from earlier work"}},
  "note": "Read-outs that look alike come from different tables or passages of the source.",
  "data": [
    {"smiles": "CC(C)(C)C[C@@H]1NC(=O)c2cccc(c2)CNC(=O)c2ccc(cc2)OCCNC(=O)CC(C)(C)CC(=O)N[C@H](C(=O)O)Cc2ccc(cc2)NC1=O", "note": "[Compound 2A]", "values": [
      {"measurement": "Kd", "setting": "[1]; read-out: dissociation equilibrium constant from maximum response vs concentration, single site", "value": 1.9, "unit": "µM"},
      {"measurement": "Kd", "setting": "[1]; read-out: equilibrium dissociation constant KD from ratio of dissociation to association rate constant", "value": 0.48, "unit": "µM"},
      {"measurement": "KS", "setting": "[2]", "value": 0.95, "unit": "µM"},
      {"measurement": "VMAX RFU/min", "setting": "[2]", "value": 310, "unit": "RFU/min"},
      {"measurement": "mode of inhibition", "setting": "[2]", "value": "hyperbolic mixed inhibition"},
      {"measurement": "α", "setting": "[2]", "value": 1.73},
      {"measurement": "β", "setting": "[2]", "value": 0.71},
      {"measurement": "Ki", "setting": "[2]; from the slope of the 1/Δ intercept vs 1/[I] plot, read-out: KI, nM (1)", "value": 120, "unit": "nM"},
      {"measurement": "Ki", "setting": "[2]; from the y intercept of the 1/Δ slope vs 1/[I] plot, read-out: KI, nM (2)", "value": 290, "unit": "nM"},
      {"measurement": "reduction of USP9X activity", "setting": "[3]; higher concentrations of compound (>10 μM)", "value": "approximately 60%"},
      {"measurement": "IC50", "setting": "[3]; read-out: IC50 for the inhibition of USP9X activity, ubiquitin-rhodamine110 substrate", "value": 390, "unit": "nM"},
      {"measurement": "IC50", "setting": "[3]; read-out: USP9X IC50 nM, Table 2", "value": 390, "unit": "nM"},
      {"measurement": "binding to immobilized carbonic anhydrase", "setting": "[4]", "value": "did not bind"}
    ]},
    {"smiles": "CCC[C@H](NC(=O)/C(C#N)=C/c1cccc(Br)n1)c1ccccc1", "note": "[WP1130, reference compound]", "values": [
      {"measurement": "IC50", "setting": "[5]", "value": 5.4, "unit": "µM"},
      {"measurement": "inhibits USP5", "setting": "[6]", "value": "inhibited"},
      {"measurement": "fold more potent than Compound 7A", "setting": "[7]", "value": "above 4 fold"},
      {"measurement": "IC50", "setting": "[8]", "value": 5.5, "unit": "µM"},
      {"measurement": "IC50", "setting": "[9]", "value": 4.4, "unit": "µM"},
      {"measurement": "IC50", "setting": "[10]", "value": 6.3, "unit": "µM"},
      {"measurement": "IC50", "setting": "[11]", "value": 5.6, "unit": "µM"},
      {"measurement": "IC50", "setting": "[12]", "value": 4.2, "unit": "µM"},
      {"measurement": "IC50", "setting": "[13]", "value": 5.1, "unit": "µM"},
      {"measurement": "IC50", "setting": "[14]", "value": 4, "unit": "µM"},
      {"measurement": "IC50", "setting": "[15]", "value": 6.6, "unit": "µM"},
      {"measurement": "IC50", "setting": "[16]", "value": 9.6, "unit": "µM"},
      {"measurement": "IC50", "setting": "[17]", "value": 14, "unit": "µM"},
      {"measurement": "IC50", "setting": "[18]", "value": 4.3, "unit": "µM"},
      {"measurement": "inhibits UCH-L1", "setting": "[19]", "value": "inhibited"},
      {"measurement": "inhibits USP14", "setting": "[20]", "value": "inhibited"},
      {"measurement": "inhibits USP9X", "setting": "[21]", "value": "inhibited"},
      {"measurement": "inhibits UCH37", "setting": "[22]", "value": "inhibited"}
    ]}
  ]
}
